Results from ChEMBL document CHEMBL6096712, “Ligand Design with Accelerated Disulfide Formation with Serum Albumin to Extend Blood Retention” (ACS Med Chem Lett, 2025).

Assays:
Format in all cases: ADME, organism-based
[1] = AUCt in C57BL/6N mouse at 0.171 mM, iv measured upto 24 hrs; settings: in vivo
[2] = Volume of distribution in C57BL/6N mouse at 0.171 mM, iv measured upto 24 hrs; settings: in vivo
[3] = Terminal half life in C57BL/6N mouse at 0.171 mM, iv measured upto 24 hrs; settings: in vivo, read-out: beta t1/2 (converted)
[4] = Clearance in C57BL/6N mouse at 0.171 mM, iv measured upto 24 hrs; settings: in vivo
[5] = Primary phase half life in C57BL/6N mouse at 0.171 mM, iv measured upto 24 hrs; settings: in vivo, read-out: alphat1/2 (converted)

CCCCCCCCCCCCCCCC(=O)NCCCCC(NC(=O)COCCOCCNC(=O)CCCCC[N+]1=C(/C=C/C2=CC(=C/C=C3/N(C)c4ccc(S(=O)(=O)O)cc4C3(C)C)/CCC2)C(C)(C)c2cc(S(=O)(=O)[O-])ccc21)C(=O)NCCOCCOCC(=O)NCCOCCOCC(N)=O (centres undefined)
AUC(0-t) at 24 h, 171 µM [1]: 30800 ng·h/mL
Vd at 171 µM [2]: 0.0427 L/kg
half-life at 171 µM [3]: 0.83 h
clearance at 171 µM [4]: 0.563 mL/min/kg

CCCCCCCCCCCCCCCC(=O)NCCCCC(NC(=O)COCCOCCNC(=O)CCCCC[N+]1=C(/C=C/C2=CC(=C/C=C3/N(C)c4ccc(S(=O)(=O)O)cc4C3(C)C)/CCC2)C(C)(C)c2cc(S(=O)(=O)[O-])ccc21)C(=O)NCCOCCOCC(=O)NCCOCCOCC(=O)NC(CSSc1ccccn1)C(N)=O (centres undefined)
AUC(0-t) at 24 h, 171 µM [1]: 146000 ng·h/mL
Vd at 171 µM [2]: 0.0284 L/kg
half-life at 171 µM [3]: 7.62 h
half-life at 171 µM [5]: 1.51 h
clearance at 171 µM [4]: 0.135 mL/min/kg

CN1/C(=C/C=C2C=C(/C=C/C3=[N+](CCCCCC(=O)NCCOCCOCC(=O)NCCOCCOCC(=O)NCCOCCOCC(=O)NC(CSSc4ccccn4)C(N)=O)c4ccc(S(=O)(=O)[O-])cc4C3(C)C)CCC/2)C(C)(C)c2cc(S(=O)(=O)O)ccc21 (centres undefined)
AUC(0-t) at 24 h, 171 µM [1]: 50500 ng·h/mL
Vd at 171 µM [2]: 0.0413 L/kg
half-life at 171 µM [3]: 4.73 h
half-life at 171 µM [5]: 1.26 h
clearance at 171 µM [4]: 0.307 mL/min/kg
